The source made the active and inactive calls. The calls are words filed in the database; no cut-off is given here.

Among the data in ChEMBL document CHEMBL1152499, “Novel l-adenosine analogs as cardioprotective agents” (2009) are Activity values, retold here.

For test [1], the system named is Heart. Briefly: Cardioprotective activity in isolated Langendorff ischemia-reperfused Swiss Webster mouse heart assessed as increase in functional recovery of contractility. Type of test: tissue-based.
The test system of test [2] is Heart. As to the kind of experiment: Cardioprotective activity in isolated Langendorff ischemia-reperfused Swiss Webster mouse heart assessed as prolongation of time to ischemic contracture. The class given is functional.
The subject of test [3] is Heart. As to the kind of experiment: Cardioprotective activity in isolated Langendorff ischemia-reperfused Swiss Webster mouse heart assessed as total tissue necrotic area. The class given is functional.

As to `CNC(=O)[C@@H]1O[C@H](n2cnc3c(NC)ncnc32)[C@@H](O)[C@H]1N`, the result in the test on Heart [1], in the test on Heart [2] and with Heart [3] was inactive.
Regarding `CN(C)c1ncnc2c1ncn2[C@H]1O[C@@H](CO)[C@H](N)[C@@H]1O`, the outcome with Heart [1] was Active. Further, the Activity was 14.5 min with Heart [2] and 19.1% in the test on Heart [3].
With `Nc1ncnc2c1ncn2[C@@H]1O[C@H](CO)[C@@H](O)[C@H]1O` [ADENOSINE], the Activity in the test with Heart [2] turned out to be 13.6 min; in the test on Heart [3], 11.5%.
